Laboratory results as given in US8513232B2, “Substituted spirocyclic piperidine derivatives as histamine-3 (H3) receptor ligands” (Cephalon, Inc., priority 2008, dated 2013).
Like-named read-outs stand apart in the source and are kept apart here.

Assays:
human H3 receptor = target: T1, human H3 receptor (Homo sapiens, UniProt Q9Y5N1); assay: Human H3 radioligand binding ([3H]-N-alpha-methylhistamine, SPA)
T1 construct: expressed in transfected cells
Method in brief: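 SPA competition binding on membranes from CHO cells stably expressing human H3 receptor (10 μg protein/well) with ~1 nM [3H]-N-alpha-methylhistamine and compound at 0.01 nM-30 μM. Incubation 4 h at room temperature in 50 mM Tris-HCl pH 7.4, 5 mM MgCl2, 0.1% BSA; non-specific binding defined with 10 μM clobenpropit.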

[1] = target: T2, rat histamine H3 receptor (Rattus norvegicus, UniProt Q9QYN8); assay: Rat H3 radioligand binding ([3H]-N-alpha-methylhistamine, SPA)
T2 construct: encoding the entire 445-amino-acid rat histamine H3 receptor; expressed in transfected cells; membrane preparation
Method in brief: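 Membranes from CHO-A3 cells stably expressing full-length rat H3 receptor (10 μg protein/well) incubated 4 h at room temperature, protected from light, with ~1 nM [3H]-N-alpha-methylhistamine and compound (0.01 nM-30 μM) in 50 mM Tris HCl pH 7.4, 5 mM MgCl2, 0.1% BSA. Binding read by SPA; 10 μM clobenpropit defined non-specific binding.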

[2] = Human H3 binding, Table B, Examples 136-362, read-out: hum H3 binding Ki
[3] = Rat H3 binding, Table B, Examples 136-362, read-out: rat H3 binding Ki
[4] = Table C, human H3 binding, read-out: Human H3 Ki
[5] = Table C, rat H3 binding, read-out: Rat H3 Ki
[6] = Table A, human H3 binding, read-out: Human Ki
[7] = Table A, rat H3 binding, read-out: Rat Ki
[8] = human H3 binding, Table D, read-out: Human H3 Ki
[9] = rat H3 binding, Table D, read-out: Rat H3 Ki

T2 sequence (Q9QYN8 whole entry): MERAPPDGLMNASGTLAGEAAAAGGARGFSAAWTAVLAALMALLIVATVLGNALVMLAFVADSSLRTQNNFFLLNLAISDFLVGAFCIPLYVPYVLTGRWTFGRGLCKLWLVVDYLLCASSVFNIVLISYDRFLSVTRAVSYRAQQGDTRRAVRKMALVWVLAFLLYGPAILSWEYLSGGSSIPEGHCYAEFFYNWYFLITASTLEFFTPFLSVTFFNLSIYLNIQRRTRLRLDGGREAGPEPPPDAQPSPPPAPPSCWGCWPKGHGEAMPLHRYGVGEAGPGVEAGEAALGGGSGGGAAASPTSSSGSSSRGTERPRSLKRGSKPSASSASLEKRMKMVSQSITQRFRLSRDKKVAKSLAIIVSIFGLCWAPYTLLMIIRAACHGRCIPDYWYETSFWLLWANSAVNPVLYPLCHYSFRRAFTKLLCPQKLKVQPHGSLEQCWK
T1 sequence (Q9Y5N1 whole entry): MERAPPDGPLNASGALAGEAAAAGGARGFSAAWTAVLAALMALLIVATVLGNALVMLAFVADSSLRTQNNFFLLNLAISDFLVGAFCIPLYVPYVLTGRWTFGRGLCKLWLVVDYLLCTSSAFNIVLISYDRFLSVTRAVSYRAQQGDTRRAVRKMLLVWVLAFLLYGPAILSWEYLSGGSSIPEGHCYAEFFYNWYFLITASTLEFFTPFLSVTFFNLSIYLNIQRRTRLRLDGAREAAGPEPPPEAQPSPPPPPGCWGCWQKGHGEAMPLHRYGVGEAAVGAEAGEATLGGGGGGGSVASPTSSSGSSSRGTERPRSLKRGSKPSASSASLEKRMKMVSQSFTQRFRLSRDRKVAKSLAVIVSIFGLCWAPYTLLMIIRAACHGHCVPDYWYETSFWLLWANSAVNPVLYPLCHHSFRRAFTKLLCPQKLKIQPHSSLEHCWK

SMILES | Ki (human H3 receptor; [2]) | Ki [1, 3] | melting point | also measured
CC(C)C(=O)N1CCC(COc2ccc3c(c2)CCC2(CCN(C4CCC4)CC2)O3)CC1 [Example 357] | < 200 nM | < 200 nM | 130 to 132 °C | 
CNC(=O)c1ccc(OC2CCN(c3ccc4c(c3)CCC3(CCN(C5CCC5)CC3)O4)CC2)nc1 [Example 439] |  |  | 214 to 216 °C | Ki (human H3 receptor; [4]): < 200 nM; Ki [1, 5]: < 200 nM
O=C(c1ccc(-c2ccc3c(c2)CCC2(CCN(C4CCC4)CC2)O3)cc1)N1CC[C@H](O)C1 [Example 182] | < 200 nM | < 200 nM | 193 to 195 °C | 
CC(=O)N(Cc1cccnc1)c1ccc2c(c1)COC1(CCN(C3CCC3)CC1)O2 [Example 320] | < 200 nM | < 200 nM | 57 to 59 °C | 
O=C(c1ccc(-c2ccc3c(c2)OC2(CCN(C4CCC4)CC2)OC3)cc1)N1CCOCC1 [Example 97] |  |  | 55 °C | Ki (human H3 receptor; [6]): > 1000 nM; Ki [1, 7]: 200 to 1000 nM
CNC(=O)c1ccc(-c2ccc3c(c2)COC2(CCN(C4CCC4)CC2)O3)c(Cl)c1 [Example 685] |  |  | 211 to 213 °C | Ki (human H3 receptor; [8]): < 200 nM; Ki [1, 9]: < 200 nM
O=C(C1CCN(c2ccc3c(c2)COC2(CCN(C4CCC4)CC2)O3)CC1)N1CCOCC1 [Example 468] |  |  | 282 to 284 °C | Ki (human H3 receptor; read-out: Human H3 Ki): < 200 nM; Ki ([1]; read-out: Rat H3 kI): < 200 nM
O=C1CC=C(c2ccc3c(c2)COC2(CCN(C4CCC4)CC2)O3)CC1 [Example 497] |  |  | 153 to 155 °C | Ki (human H3 receptor; read-out: Human H3 Ki): < 200 nM; Ki ([1]; read-out: Rat H3 kI): < 200 nM
O=C1CCC(c2ccc3c(c2)COC2(CCN(C4CCC4)CC2)O3)CN1 (stereo not drawn) [Example 530] |  |  | 233 to 235 °C | Ki (human H3 receptor; read-out: Human H3 Ki): < 200 nM; Ki ([1]; read-out: Rat H3 kI): < 200 nM
c1cc2c(cc1OCC1CCSCC1)CCC1(CCN(C3CCC3)CC1)O2 [Example 499] |  |  | 117 to 118 °C | Ki (human H3 receptor; read-out: Human H3 Ki): < 200 nM; Ki ([1]; read-out: Rat H3 kI): < 200 nM
Cc1c(-c2ccc3c(c2)COC2(CCN(C4CCC4)CC2)O3)cn(CC(F)(F)F)c(=O)c1C [Example 783] |  |  | 96 to 98 °C | Ki (human H3 receptor; [8]): < 200 nM; Ki [1, 9]: < 200 nM
O=c1ccc(-c2ccc3c(c2)COC2(CCN(CCC4CCOCC4)CC2)O3)c[nH]1 [Example 703] |  |  | 214 to 216 °C | Ki (human H3 receptor; [8]): 200 to 1000 nM; Ki [1, 9]: > 1000 nM
COC[C@H](C)NC(=O)c1ccc(-c2ccc3c(c2)COC2(CCN(C4CCC4)CC2)O3)cc1Cl [Example 598] |  |  | 150 to 152 °C | Ki (human H3 receptor; [8]): < 200 nM; Ki [1, 9]: < 200 nM
OC1CCN(c2ccc3c(c2)CCC2(CCN(C4CCC4)CC2)O3)CC1 [Example 405] |  |  | > 265 °C (dec.) | Ki (human H3 receptor; [4]): < 200 nM; Ki [1, 5]: < 200 nM
COc1cccc(N2CCN(c3ccc4c(c3)CCC3(CCN(C5CCC5)CC3)O4)CC2)n1 [Example 382] |  |  | 243 to 245 °C | Ki (human H3 receptor; [4]): < 200 nM; Ki [1, 5]: < 200 nM
c1cc(Oc2ccc3c(c2)CCC2(CCN(C4CCC4)CC2)O3)ccn1 [Example 273] | < 200 nM | < 200 nM | 266 to 268 °C | 
COc1cnc(-c2ccc3c(c2)COC2(CCN(C4CCC4)CC2)O3)nc1 [Example 470] |  |  | 113 to 115 °C | Ki (human H3 receptor; read-out: Human H3 Ki): < 200 nM; Ki ([1]; read-out: Rat H3 kI): < 200 nM
O=C(c1ccc(-c2ccc3c(c2)COC2(CCN(C4CCC4)CC2)O3)cc1F)N1CCC(O)CC1 [Example 222] | < 200 nM | < 200 nM | 105.2 to 106.9 °C | 
COCCNC(=O)c1ccc(-c2ccc3c(c2)CCC2(CCN(C4CCC4)CC2)O3)cc1Cl [Example 332] | < 200 nM | < 200 nM | 231 to 232 °C | 
CNC(=O)NCc1ccc(-c2ccc3c(c2)COC2(CCN(C4CCC4)CC2)O3)cc1 [Example 181] | < 200 nM | < 200 nM | 205 to 206.5 °C | 

SMILES | Ki (human H3 receptor; [2]) | Ki [1, 3] | melting point | also measured
COc1ccc(/C=C/c2ccc3c(c2)COC2(CCN(C4CCC4)CC2)O3)cn1 [Example 502] |  |  | 144 to 146 °C | Ki (human H3 receptor; read-out: Human H3 Ki): < 200 nM; Ki ([1]; read-out: Rat H3 kI): < 200 nM
CC(C)NS(=O)(=O)c1ccc(-c2ccc3c(c2)COC2(CCN(C4CCC4)CC2)O3)cc1 [Example 35] |  |  | 85 to 90 °C | Ki (human H3 receptor; [6]): < 200 nM; Ki [1, 7]: < 200 nM
CNC(=O)c1c(F)cc(-c2ccc3c(c2)CCC2(CCN(C4CCC4)CC2)O3)cc1F [Example 226] | < 200 nM | < 200 nM | 110 to 112 °C | 
CC(C)n1cc(-c2ccc3c(c2)COC2(CCN(C4CCC4)CC2)O3)ccc1=O [Example 719] |  |  | 176 to 177 °C | Ki (human H3 receptor; [8]): < 200 nM; Ki [1, 9]: < 200 nM
COCCNC(=O)c1ccc(-c2ccc3c(c2)CCC2(CCN(C4CCC4)CC2)O3)cn1 [Example 209] | < 200 nM | < 200 nM | 218 to 219 °C | 
Cc1cscc1-c1ccc2c(c1)COC1(CCN(C3CCC3)CC1)O2 [Example 785] |  |  | 91 to 93 °C | Ki (human H3 receptor; [8]): < 200 nM; Ki [1, 9]: < 200 nM
c1ncc(COc2ccc3c(c2)CCC2(CCN(C4CCC4)CC2)O3)s1 [Example 574] |  |  | 85 to 87 °C | Ki (human H3 receptor; [8]): < 200 nM; Ki [1, 9]: < 200 nM
CNC(=O)c1ccc(-c2ccc3c(c2)COC2(CCN(C4CCC4)CC2)O3)cc1Cl [Example 225] | < 200 nM | < 200 nM | 276 to 277 °C | 
O=C1N(c2ccc(C(F)(F)F)nc2)CCN1c1ccc2c(c1)COC1(CCN(C3CCC3)CC1)O2 [Example 242] | < 200 nM | < 200 nM | 222 to 224 °C | 
Cc1cc(C(N)=O)cc(C)c1-c1ccc2c(c1)COC1(CCN(C3CCC3)CC1)O2 [Example 751] |  |  | 156 to 158 °C | Ki (human H3 receptor; [8]): < 200 nM; Ki [1, 9]: < 200 nM
O=C1CCN(C(=O)c2ccc(-c3ccc4c(c3)CCC3(CCN(C5CCC5)CC3)O4)cc2)CC1 [Example 197] |  |  | 82.9 to 84.3 °C | Ki (human H3 receptor): < 200 nM; Ki [1]: < 200 nM
O=c1ncc(Oc2ccc3c(c2)CCC2(CCN(C4CCC4)CC2)O3)c[nH]1 [Example 495] |  |  | 259 to 261 °C | Ki (human H3 receptor; read-out: Human H3 Ki): < 200 nM; Ki ([1]; read-out: Rat H3 kI): < 200 nM
Cc1cc(=O)[nH]cc1-c1ccc2c(c1)COC1(CCN(C3CCC3)CC1)O2 [Example 651] |  |  | 217 to 220 °C | Ki (human H3 receptor; [8]): < 200 nM; Ki [1, 9]: < 200 nM
FC(F)(F)c1ccc(N2CCN(c3ccc4c(c3)CCC3(CCN(C5CCC5)CC3)O4)CC2)nc1 [Example 372] |  |  | 212 to 213 °C | Ki (human H3 receptor; [4]): < 200 nM; Ki [1, 5]: < 200 nM
COC1CCN(C(=O)c2ccc(-c3ccc4c(c3)CCC3(CCN(C5CCC5)CC3)O4)cn2)CC1 [Example 251] | < 200 nM | < 200 nM | 150 to 152 °C | 
Cc1cc(-c2ccc3c(c2)CCC2(CCN(C4CCC4)CC2)O3)ccc1C(=O)NCCO [Example 238] | < 200 nM | < 200 nM | 78.5 to 79.8 °C | 
O=C(c1ccc(-c2ccc3c(c2)COC2(CCN(C4CCC4)CC2)O3)cc1)N1CCCCC1 [Example 27] |  |  | 59 to 62 °C | Ki (human H3 receptor; [6]): < 200 nM; Ki [1, 7]: < 200 nM
O=C(C1CC(O)(c2ccc3c(c2)COC2(CCN(C4CCC4)CC2)O3)C1)N1CCCC1 (stereo not drawn) [Example 482] |  |  | 157 to 159 °C | Ki (human H3 receptor; read-out: Human H3 Ki): < 200 nM; Ki ([1]; read-out: Rat H3 kI): < 200 nM
CNC(=O)c1cnc(-c2ccc3c(c2)COC2(CCN(C4CCC4)CC2)O3)s1 [Example 164] | < 200 nM | < 200 nM | 200 to 203 °C | 
O=c1cc(-c2ccc3c(c2)COC2(CCN(C4CCC4)CC2)O3)cc[nH]1 [Example 475] |  |  | 211 to 213 °C | Ki (human H3 receptor; read-out: Human H3 Ki): < 200 nM; Ki ([1]; read-out: Rat H3 kI): < 200 nM
